Measured values as given in ChEMBL document CHEMBL5465560, “Selectivity Literature for EUbOPEN Chemogenomic Library” (2024).

Legend:
[1] = target: T1, Hormonally up-regulated neu tumor-associated kinase (Homo sapiens) (UniProt P57058); test: Selectivity interaction (KinomeScan (DiscoverX)) EUB0000618a HUNK; settings: at 10 µM
T1 sequence (whole entry): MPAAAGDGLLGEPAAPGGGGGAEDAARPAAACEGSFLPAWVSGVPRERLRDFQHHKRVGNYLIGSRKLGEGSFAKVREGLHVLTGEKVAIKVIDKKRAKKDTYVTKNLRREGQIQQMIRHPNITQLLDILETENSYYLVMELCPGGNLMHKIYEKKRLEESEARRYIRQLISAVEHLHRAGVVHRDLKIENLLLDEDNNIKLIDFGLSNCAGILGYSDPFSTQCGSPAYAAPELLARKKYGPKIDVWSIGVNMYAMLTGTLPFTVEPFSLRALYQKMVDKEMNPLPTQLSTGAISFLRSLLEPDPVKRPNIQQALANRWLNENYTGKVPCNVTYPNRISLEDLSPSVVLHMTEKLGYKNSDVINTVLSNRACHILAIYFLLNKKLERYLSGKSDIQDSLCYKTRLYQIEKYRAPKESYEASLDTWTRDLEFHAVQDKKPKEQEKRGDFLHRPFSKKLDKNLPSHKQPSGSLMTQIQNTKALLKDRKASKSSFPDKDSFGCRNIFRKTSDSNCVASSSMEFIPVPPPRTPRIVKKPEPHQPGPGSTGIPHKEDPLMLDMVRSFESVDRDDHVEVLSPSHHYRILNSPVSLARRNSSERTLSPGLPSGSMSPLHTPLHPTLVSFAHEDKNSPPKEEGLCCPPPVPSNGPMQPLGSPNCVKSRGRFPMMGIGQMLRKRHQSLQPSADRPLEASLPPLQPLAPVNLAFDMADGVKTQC

[2] = target: T2, cGMP-dependent protein kinase 1 (Homo sapiens) (UniProt Q13976); test: Selectivity interaction (KinomeScan (DiscoverX)) EUB0000607a PRKG1; settings: at 10 µM
T2 sequence (whole entry): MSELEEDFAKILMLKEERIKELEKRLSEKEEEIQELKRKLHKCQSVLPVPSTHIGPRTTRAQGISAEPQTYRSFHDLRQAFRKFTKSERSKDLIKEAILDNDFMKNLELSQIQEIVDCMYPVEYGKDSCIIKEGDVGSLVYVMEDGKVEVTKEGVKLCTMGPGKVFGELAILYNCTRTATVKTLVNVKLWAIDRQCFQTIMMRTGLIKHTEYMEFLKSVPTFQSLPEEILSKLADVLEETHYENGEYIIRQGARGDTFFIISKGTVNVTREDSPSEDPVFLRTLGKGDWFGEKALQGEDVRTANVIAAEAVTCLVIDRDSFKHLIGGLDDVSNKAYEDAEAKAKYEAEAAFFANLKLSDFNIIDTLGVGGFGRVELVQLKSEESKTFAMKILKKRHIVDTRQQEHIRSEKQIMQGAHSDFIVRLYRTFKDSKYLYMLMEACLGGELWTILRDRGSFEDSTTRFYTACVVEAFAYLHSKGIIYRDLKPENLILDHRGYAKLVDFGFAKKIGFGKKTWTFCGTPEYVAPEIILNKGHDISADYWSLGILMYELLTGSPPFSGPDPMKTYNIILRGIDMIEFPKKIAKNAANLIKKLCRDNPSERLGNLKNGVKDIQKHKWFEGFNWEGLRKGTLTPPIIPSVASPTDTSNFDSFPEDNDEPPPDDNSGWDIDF

[3] = target: Ribosomal protein S6 kinase alpha-5 (Homo sapiens) (UniProt O75582); test: Selectivity interaction (ActivX KiNativ screen (ex vivo kinase selectivity in human PBMCs)) EUB0001619a RPS6KA5; type: cell-based; settings: PBMC, at 1 µM
Ribosomal protein S6 kinase alpha-5 (Homo sapiens), sequence (O75582 whole entry, looked up): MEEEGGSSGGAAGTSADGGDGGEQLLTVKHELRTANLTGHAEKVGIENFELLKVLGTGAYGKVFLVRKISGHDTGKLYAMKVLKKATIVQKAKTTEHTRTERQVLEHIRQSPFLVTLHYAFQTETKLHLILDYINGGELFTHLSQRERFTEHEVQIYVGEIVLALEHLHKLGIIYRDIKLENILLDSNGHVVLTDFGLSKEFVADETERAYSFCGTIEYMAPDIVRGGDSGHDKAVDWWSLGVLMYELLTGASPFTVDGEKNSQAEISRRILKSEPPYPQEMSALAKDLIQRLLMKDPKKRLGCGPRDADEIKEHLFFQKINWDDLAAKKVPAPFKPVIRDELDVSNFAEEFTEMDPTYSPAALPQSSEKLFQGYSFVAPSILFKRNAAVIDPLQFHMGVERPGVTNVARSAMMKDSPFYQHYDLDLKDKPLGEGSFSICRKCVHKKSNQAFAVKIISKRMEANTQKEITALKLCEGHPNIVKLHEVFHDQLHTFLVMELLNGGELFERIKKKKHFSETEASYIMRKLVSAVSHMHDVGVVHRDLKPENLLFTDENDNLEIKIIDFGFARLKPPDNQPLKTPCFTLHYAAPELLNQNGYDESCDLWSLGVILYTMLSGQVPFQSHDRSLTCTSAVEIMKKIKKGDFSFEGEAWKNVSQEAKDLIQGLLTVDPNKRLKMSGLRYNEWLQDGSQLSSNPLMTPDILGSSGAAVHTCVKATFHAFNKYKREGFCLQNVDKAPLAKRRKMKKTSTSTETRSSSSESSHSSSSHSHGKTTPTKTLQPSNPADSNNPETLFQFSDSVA

[4] = target: Mitogen-activated protein kinase kinase kinase 21 (Homo sapiens) (UniProt Q5TCX8); test: Selectivity interaction (Kinase panel (KiNativ target engagement assay in Jurkat cells)) EUB0001635a MAP3K21; type: cell-based; settings: Selectivity number of off-targets 0.0, Selectivity number of targets 233.0, Source Knowledge https://www.sciencedirect.com/science/article/pii/S2451945619300674?via%3Dihub, at 1 µM
Mitogen-activated protein kinase kinase kinase 21 (Homo sapiens), sequence (Q5TCX8 whole entry): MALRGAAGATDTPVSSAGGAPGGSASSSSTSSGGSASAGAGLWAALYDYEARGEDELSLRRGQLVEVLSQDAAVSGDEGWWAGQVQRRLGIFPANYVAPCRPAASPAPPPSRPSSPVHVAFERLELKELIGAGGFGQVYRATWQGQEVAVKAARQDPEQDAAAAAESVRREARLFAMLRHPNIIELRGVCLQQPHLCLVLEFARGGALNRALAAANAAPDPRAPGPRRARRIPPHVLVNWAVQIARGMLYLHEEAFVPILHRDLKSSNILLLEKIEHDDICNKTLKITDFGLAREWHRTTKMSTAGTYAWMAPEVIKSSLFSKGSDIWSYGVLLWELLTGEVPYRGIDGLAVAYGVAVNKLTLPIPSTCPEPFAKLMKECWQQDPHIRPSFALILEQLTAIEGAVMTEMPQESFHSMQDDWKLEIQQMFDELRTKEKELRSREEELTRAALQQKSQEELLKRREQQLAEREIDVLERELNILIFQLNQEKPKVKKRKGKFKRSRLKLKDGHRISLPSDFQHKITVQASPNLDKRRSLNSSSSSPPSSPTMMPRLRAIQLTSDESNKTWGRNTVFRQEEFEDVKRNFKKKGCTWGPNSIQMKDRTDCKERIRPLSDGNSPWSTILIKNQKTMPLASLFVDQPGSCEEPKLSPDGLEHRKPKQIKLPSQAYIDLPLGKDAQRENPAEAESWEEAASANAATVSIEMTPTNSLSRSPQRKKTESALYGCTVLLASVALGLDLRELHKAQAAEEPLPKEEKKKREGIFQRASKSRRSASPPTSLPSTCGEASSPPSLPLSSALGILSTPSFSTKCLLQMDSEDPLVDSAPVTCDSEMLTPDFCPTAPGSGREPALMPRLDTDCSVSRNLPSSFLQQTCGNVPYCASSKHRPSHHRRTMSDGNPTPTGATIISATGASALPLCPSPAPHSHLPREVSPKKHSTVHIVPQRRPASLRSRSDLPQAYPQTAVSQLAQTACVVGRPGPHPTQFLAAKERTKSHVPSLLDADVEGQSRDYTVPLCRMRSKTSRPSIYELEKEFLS

[5] = target: T3, Serine/threonine-protein kinase BRSK2 (Homo sapiens) (UniProt Q8IWQ3); test: Selectivity interaction (KinomeScan (DiscoverX)) EUB0000229b BRSK2; settings: at 10 µM
T3 sequence (whole entry): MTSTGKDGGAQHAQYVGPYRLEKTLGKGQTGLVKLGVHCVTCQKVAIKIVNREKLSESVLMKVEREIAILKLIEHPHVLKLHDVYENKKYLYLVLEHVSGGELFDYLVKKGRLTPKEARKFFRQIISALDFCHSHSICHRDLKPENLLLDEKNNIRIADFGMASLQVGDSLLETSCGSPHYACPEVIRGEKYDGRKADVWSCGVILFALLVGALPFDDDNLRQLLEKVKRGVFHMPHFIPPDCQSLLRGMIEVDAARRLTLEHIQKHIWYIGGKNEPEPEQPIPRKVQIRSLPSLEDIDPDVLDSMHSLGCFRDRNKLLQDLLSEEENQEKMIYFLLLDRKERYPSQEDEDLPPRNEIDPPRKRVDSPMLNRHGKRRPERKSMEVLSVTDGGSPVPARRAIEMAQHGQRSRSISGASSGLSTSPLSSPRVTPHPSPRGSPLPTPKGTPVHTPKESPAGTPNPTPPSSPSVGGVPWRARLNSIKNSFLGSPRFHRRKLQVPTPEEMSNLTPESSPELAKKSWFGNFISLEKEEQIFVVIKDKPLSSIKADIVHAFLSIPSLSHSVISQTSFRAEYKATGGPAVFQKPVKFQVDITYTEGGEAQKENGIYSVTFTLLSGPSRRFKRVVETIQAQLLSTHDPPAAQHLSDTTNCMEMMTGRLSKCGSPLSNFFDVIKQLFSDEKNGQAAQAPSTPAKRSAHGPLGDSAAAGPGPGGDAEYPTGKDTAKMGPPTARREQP

[6] = target: T4, Uncharacterized serine/threonine-protein kinase SBK3 (Homo sapiens) (UniProt P0C264); test: Selectivity interaction (KinomeScan (DiscoverX)) EUB0000092b SBK3; settings: at 10 µM
T4 sequence (whole entry): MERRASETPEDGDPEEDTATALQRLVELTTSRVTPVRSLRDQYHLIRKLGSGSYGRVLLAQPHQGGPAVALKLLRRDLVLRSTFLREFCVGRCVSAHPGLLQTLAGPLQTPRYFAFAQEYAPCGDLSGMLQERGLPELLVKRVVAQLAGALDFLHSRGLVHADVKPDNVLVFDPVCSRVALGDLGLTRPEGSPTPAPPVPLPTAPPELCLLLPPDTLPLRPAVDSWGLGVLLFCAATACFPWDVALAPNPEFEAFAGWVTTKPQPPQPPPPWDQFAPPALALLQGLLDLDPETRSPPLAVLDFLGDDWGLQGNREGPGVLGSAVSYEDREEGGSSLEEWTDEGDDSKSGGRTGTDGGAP

[7] = target: Serine/threonine-protein kinase PAK 2 (Homo sapiens) (UniProt Q13177); test: Selectivity interaction (KinomeScan (DiscoverX)) EUB0000695a PAK2; settings: at 100 nM
Serine/threonine-protein kinase PAK 2 (Homo sapiens), sequence (Q13177 whole entry): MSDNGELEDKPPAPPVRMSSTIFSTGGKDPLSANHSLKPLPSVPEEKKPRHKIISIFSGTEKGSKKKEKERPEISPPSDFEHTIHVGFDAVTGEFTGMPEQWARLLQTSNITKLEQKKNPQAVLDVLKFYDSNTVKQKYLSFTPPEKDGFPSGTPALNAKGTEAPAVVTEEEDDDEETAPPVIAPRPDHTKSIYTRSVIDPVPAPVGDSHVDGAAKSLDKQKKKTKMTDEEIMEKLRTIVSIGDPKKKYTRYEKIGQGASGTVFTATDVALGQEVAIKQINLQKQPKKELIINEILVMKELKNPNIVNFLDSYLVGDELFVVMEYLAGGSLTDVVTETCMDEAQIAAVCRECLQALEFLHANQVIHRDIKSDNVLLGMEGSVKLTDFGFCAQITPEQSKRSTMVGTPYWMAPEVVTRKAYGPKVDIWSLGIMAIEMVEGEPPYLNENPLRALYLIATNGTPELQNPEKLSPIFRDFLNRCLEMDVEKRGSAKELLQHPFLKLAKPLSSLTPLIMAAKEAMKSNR

O[C@H]1CC[C@H](Nc2ncc3nc(Nc4c(F)cc(F)cc4F)n([C@H]4CCOC4)c3n2)CC1
% of control [1]: 89%

CNC(=O)Nc1ccc(-c2nc(N3CC4CCC(C3)O4)c3cnn(C4CCC5(CC4)OCCO5)c3n2)cc1
% of control [2]: 100%

N#Cc1cccc(-c2c[nH]c3ncnc(N4CCOCC4)c23)c1
% of inhibition [3]: -4%

C=CC(=O)Nc1ccc(C(=O)Nc2[nH]nc3c2CN(C(=O)N[C@H](CN(C)C)c2ccccc2)C3(C)C)cc1
% of engagement [4]: -4.1%

COc1cc(N(C)c2ccnc3ccc(C(F)(F)F)cc23)cc(OC)c1OC
% binding [5]: 90%

CCC(=O)N1CCN(c2ccc(-n3c(=O)ccc4cnc5ccc(-c6cnc7ccccc7c6)cc5c43)cc2C(F)(F)F)CC1
% of control [6]: 94%

Cc1cc(F)c(C(=O)Nc2cccc(-c3nncn3C(C)C)n2)cc1-n1cnc(C2CC2)c1
% of control [7]: 100%
